Test results as given in PMC9182199, “Borylated 2,3,4,5-Tetrachlorophthalimide and Their 2,3,4,5-Tetrachlorobenzamide Analogues: Synthesis, Their Glycosidase Inhibition and Anticancer Properties in View to Boron Neutron Capture Therapy” (Molecules, 2022).

How the values were obtained:
[1] = target: T1, bovine liver β-glucosidase (Bos taurus, UniProt F1MNT6); assay: Glycosidase inhibition, laboratory 1: bovine liver β-glucosidase; format: biochemical; details: methanol
T1 sequence (F1MNT6 1-469): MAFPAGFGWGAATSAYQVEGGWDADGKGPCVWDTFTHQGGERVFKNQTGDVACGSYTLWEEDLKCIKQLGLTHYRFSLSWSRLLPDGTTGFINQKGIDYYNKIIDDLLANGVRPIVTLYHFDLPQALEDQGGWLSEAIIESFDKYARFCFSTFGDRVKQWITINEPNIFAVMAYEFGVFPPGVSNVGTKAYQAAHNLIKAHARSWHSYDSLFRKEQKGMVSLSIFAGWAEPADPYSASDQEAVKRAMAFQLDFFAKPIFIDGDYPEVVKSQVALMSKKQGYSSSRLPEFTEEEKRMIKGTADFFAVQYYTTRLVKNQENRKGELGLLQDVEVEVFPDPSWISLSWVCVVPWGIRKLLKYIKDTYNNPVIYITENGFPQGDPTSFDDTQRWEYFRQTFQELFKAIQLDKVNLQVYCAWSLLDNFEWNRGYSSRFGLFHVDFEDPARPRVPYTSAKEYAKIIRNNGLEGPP
Text: (§1) The enzymes α-glucosidase (from yeast), β-glucosidases (from almond and bovine liver), α-galactosidase (from coffee beans), β-galactosidase (from bovine liver), α-mannosidase (from Jack bean), β-mannosidase (from snail), α-L-rhamnosidase (from Penicillium decumbens), α-L-fucosidase (from bovine kidney), trehalase (from porcine kidney), β-glucuronidases (from E. coli and bovine liver), amyloglucosidase (from A. niger), para-nitrophenyl glycosides, and various disaccharides were purchased from Sigma-Aldrich Co (St Louis, MO, USA).
(§2) Brush border membranes were prepared from the rat small intestine according to the method of Kessler et al. and were assayed at pH 6.8 for rat intestinal maltase using maltose. For rat intestinal maltase, porcine kidney trehalase, and A. niger amyloglucosidase activities, the reaction mixture contained 25 mM maltose and the appropriate amount of enzyme, and the incubations were performed for 10–30 min at 37 °C. The reaction was stopped by heating at 100 °C for 3 min. After centrifugation (600× g; 10 min), the resulting reaction mixture was added to the Glucose CII-test Wako (Wako Pure Chemical Ind., Osaka, Japan). The absorbance at 505 nm was measured to determine the amount of the released D-glucose. Other glycosidase activities were determined using an appropriate para-nitrophenyl glycoside as substrate at the optimum pH of each enzyme. The reaction mixture contained 2 mM of the substrate and the appropriate amount of enzyme. The reaction was stopped by addition of 400 mM Na2CO3. The released para-nitrophenol was measured spectrometrically at 400 nm. All reactions run in methanol.

panel of 15 glycosidases = assay: Glycosidase inhibition, laboratory 1: whole panel; format: biochemical; details: laboratory 1, methanol; range or words over enzymes
Text: as §1
as §2, with “After centrifugation (600× g; 10 min), the resulting reaction mixture was added to the Glucose CII-test Wako (Wako Pure Chemical Ind., Osaka, Japan).” left out, “The reaction mixture contained 2 mM of the substrate and the appropriate amount of enzyme. The reaction was stopped by addition of 400 mM Na2CO3.” left out, “All reactions run in methanol.” left out

**Q.** Which “inhibition % at 100 μM” value ([1]; 100 μM) does the source give for N[C@@H](Cc1ccc(B(O)O)cc1)C(=O)O [^10B-BPA, reference compound] here?
**A.** ^cNI ^d (14.2%)

**Q.** How did the inhibition at 10 µM [1] turn out when CC1(C)OB(c2cccc(CN3C(=O)c4c(Cl)c(Cl)c(Cl)c(Cl)c4C3=O)c2)OC1(C)C [meta 3, 4,5,6,7-Tetrachloro-2-(3-(4,4,5,5-tetramethyl-1,3,2-dioxaborolan-2-yl)benzyl)isoindoline-1,3-dione] was run?
**A.** 18.8%

**Q.** What does the source list for CC1(C)OB(c2ccccc2NC(=O)c2cc(Cl)c(Cl)c(Cl)c2Cl)OC1(C)C [ortho 5, 2,3,4,5-Tetrachloro-N-(2-(4,4,5,5-tetramethyl-1,3,2-dioxaborolan-2-yl)phenyl)benzamide]?
**A.** percent inhibition across the glycosidase panel (panel of 15 glycosidases): no significant inhibition; inhibition at 10 µM [1]: 21.2%

**Q.** With CC1(C)OB(c2ccc(CN3C(=O)c4c(Cl)c(Cl)c(Cl)c(Cl)c4C3=O)cc2)OC1(C)C [para 3, 4,5,6,7-Tetrachloro-2-(4-(4,4,5,5-tetramethyl-1,3,2-dioxaborolan-2-yl)benzyl)isoindoline-1,3-dione] as the compound, how does the inhibition at 100 µM ([1]; 100 μM) read?
**A.** 4%

**Q.** Which “inhibition % at 1000 μM” value ([1]; 1000 μM) does the source give for “Borocaptate sodium [BSH, reference compound]” here?
**A.** ^aNI ^b (15%)
